Consider three compounds from publication PMC7690861, “Topical Administration of Cannabidiol: Influence of Vehicle-Related Aspects on Skin Permeation Process” (Pharmaceuticals, 2020).

Data set [1] is described as follows: Preliminary chemical stability of CBD in tested formulations (total impurities). The data set is classed as physicochemical. The following applies: over the preparation process and the permeation experiments; preliminary data. The source says:
Evidence in the literature highlighted that CBD was quite unstable in a solution for a long period. Even if an in-depth investigation of the chemical stability of CBD loaded in the tested formulation has not been performed yet, preliminary data highlighted that CBD was stable over both the preparation process and the permeation experiments (total impurities < 2% of CBD assay). […] Further studies are needed to determine the long-term stability of the tested formulations.
HPLC analysis was run using an HP 1100 ChemStation system (Agilent Technologies Inc, USA), acetonitrile/phosphate buffer pH 3.0 (75/25, v/v) was used as mobile phase at a flow rate of 1.5 mL/min, injection volume was set at 20 μL. The UV detector was set at a wavelength of 215 nm. A reverse-phase C8 column (InertClone™, 5 μm, 150 × 4.6 mm; Phenomenex Inc, Torrance, USA) was used. The retention time of the CBD was 4.0 min. Two calibration curves were made in the overall range of 0.02–100 μg/mL.

On the set-up of data set [2]: method as in Burke [29]. Conditions: experimental; ref Burke [29]; cited from earlier work.
The conditions of data set [3]: Fedors method; ref Minghetti et al. [26]; cited from earlier work.

≈ marks a conversion by molar mass, not a printed value. Like-named read-outs stand apart in the source and are kept apart here. Marks after values point to notes of the source that are not given here.

Protocol for physchem: The equilibrium solubility of CBD in each of the above-mentioned solvent systems was determined by the shake-flask method. An excess quantity of the cannabinoid compound was added to 1 mL of each test solution in a glass vial. […] In the case of aqueous solutions, the supernatant fluid was then filtered (0.45 μm PP syringe filter) and properly diluted in methanol before being analyzed by HPLC. In the case of oily solutions, the supernatant fluid was filtered (0.45 μm PVDF syringe filter); then, 60 μL of the filtered solution was withdrawn and added to 5 mL of methanol; the mixture was vortexed for 1 min and allowed to stand for 1 min three times, then it was centrifuged (4000 rpm, 2 min); the supernatant fluid was sampled and properly diluted in methanol before being analyzed by HPLC. Each solubility value was calculated as the mean of three independent shake-flask experiments, considering any dilution factors and an extraction efficiency factor in case of oily solutions.

For orientation: solubility means the concentration that dissolves in the medium under given conditions. Read a high solubility as a readily soluble substance. As for `C=C(C)[C@@H]1CCC(C)=C[C@H]1c1c(O)cc(CCCCC)cc1O` [CBD, Cannabidiol], the Total impurities in data set [1] is < 2 % of CBD assay. The same compound gave a solubility at 24 h in the data set “physchem” of 2240 ± 80 µg/mL (≈ 7.12 mM).
For the compound `CC(O)CO` (stereo not shown) [Propylene glycol], the “δ (solubility parameter)” value in data set [2] was 14.80 ^d cal/cm^3.
For O-acylglucosylceramide, the “δ (solubility parameter)” value in data set [3] is recorded as 10.03 ^a cal/cm^3.
